{"source": "patent US8232289B2", "about": "“Spiropiperidine compounds as ORL-1 receptor antagonists” (Eli Lilly and Company, priority 2009, dated 2012)", "key": {"Adrenergic Alpha2": {"target": "Adrenergic Alpha2", "assay": "Radioligand binding selectivity, Adrenergic Alpha2", "source_text": "(§1) Similarly, Ki for the mu, kappa and delta opioids, serotonin, dopamine, adrenergic, mucarinic, and histamine receptors, as well as binding to the norepinephrine transporter, sodium channel, chloride channel, and calcium channel may be determined using membranes expressing the desired receptor/transporter/channels and appropriate corresponding radioligand competitor molecules."}, "[1]": {"target": "Norepinephrine transporter (Homo sapiens, UniProt P23975)", "sequence (P23975 whole entry, species assumed)": "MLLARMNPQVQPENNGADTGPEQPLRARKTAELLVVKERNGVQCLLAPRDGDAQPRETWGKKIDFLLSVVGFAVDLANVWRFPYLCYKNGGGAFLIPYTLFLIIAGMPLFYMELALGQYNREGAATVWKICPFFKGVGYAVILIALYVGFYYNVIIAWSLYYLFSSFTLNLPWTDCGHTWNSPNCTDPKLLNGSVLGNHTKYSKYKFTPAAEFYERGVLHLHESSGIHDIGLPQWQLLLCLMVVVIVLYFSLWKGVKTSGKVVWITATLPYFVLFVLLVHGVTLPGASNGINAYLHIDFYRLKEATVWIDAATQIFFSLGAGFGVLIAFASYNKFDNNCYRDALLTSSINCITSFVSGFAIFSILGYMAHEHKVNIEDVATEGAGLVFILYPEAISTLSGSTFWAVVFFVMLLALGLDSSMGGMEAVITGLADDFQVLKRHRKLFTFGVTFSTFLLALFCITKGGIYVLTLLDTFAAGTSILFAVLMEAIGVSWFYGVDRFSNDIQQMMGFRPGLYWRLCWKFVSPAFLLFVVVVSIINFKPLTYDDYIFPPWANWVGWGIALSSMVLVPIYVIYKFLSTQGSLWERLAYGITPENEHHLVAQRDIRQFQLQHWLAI", "assay": "Radioligand binding selectivity, Norepinephrine transporter", "source_text": "as §1"}, "5-HT1F": {"target": "5-HT1F (Homo sapiens, UniProt P30939)", "assay": "Radioligand binding selectivity, 5-HT1F", "source_text": "as §1"}, "5-HT2A": {"target": "5-HT2A (Homo sapiens, UniProt P28223)", "assay": "Radioligand binding selectivity, 5-HT2A", "source_text": "as §1"}, "5-HT2B": {"target": "5-HT2B (Homo sapiens, UniProt P41595)", "sequence (P41595 whole entry, species assumed)": "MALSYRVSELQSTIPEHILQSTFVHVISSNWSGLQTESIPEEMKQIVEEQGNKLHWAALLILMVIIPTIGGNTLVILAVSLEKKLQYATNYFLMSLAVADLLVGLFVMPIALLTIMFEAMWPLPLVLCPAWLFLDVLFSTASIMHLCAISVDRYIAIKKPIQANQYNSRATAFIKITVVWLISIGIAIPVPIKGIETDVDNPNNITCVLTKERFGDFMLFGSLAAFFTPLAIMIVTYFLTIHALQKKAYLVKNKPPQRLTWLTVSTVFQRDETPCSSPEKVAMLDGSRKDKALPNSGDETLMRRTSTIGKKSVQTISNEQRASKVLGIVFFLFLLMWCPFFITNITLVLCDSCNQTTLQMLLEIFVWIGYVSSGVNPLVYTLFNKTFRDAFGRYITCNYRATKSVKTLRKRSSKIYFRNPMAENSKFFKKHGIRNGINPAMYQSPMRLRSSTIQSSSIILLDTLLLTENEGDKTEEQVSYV", "assay": "Radioligand binding selectivity, 5-HT2B", "source_text": "as §1"}, "5-HT7": {"target": "5-HT7 (Homo sapiens, UniProt P34969)", "sequence (P34969 whole entry, species assumed)": "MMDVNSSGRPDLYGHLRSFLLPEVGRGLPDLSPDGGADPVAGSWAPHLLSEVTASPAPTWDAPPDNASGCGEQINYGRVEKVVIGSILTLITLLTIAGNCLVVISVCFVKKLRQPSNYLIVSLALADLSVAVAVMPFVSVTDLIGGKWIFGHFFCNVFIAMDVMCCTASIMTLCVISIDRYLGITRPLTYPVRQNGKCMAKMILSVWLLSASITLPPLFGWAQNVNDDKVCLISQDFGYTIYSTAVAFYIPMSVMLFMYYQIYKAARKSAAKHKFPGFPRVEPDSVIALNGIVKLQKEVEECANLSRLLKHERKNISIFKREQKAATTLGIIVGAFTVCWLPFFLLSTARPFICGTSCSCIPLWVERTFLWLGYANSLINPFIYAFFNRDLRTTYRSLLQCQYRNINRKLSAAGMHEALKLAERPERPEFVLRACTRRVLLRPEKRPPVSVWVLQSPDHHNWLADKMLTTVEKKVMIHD", "assay": "Radioligand binding selectivity, 5-HT7", "source_text": "as §1"}, "5-HT4": {"target": "5-HT4 (Homo sapiens, UniProt Q13639)", "sequence (Q13639 whole entry, species assumed)": "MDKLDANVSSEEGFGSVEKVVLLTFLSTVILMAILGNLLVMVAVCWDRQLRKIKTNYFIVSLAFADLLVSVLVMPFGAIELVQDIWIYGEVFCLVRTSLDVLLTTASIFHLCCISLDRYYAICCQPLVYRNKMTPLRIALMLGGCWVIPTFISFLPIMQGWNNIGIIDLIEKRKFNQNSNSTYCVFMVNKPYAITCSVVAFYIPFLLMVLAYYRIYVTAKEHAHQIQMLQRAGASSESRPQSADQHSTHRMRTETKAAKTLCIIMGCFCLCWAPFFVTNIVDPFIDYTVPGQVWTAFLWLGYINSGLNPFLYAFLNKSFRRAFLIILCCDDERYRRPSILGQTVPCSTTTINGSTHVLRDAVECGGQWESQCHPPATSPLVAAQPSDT", "assay": "Radioligand binding selectivity, 5-HT4", "source_text": "as §1"}, "Ca+2 channel (DHP site)": {"target": "Ca+2 channel (DHP site)", "assay": "Radioligand binding selectivity, Ca+2 channel (DHP site)", "source_text": "as §1"}, "5-HT1A": {"target": "5-HT1A (Homo sapiens, UniProt P08908)", "assay": "Radioligand binding selectivity, 5-HT1A", "source_text": "as §1"}, "[2]": {"target": "Ca+2 channel (verapamil site)", "assay": "Radioligand binding selectivity, Ca+2 channel (verapamil site)", "source_text": "as §1"}, "D1 Dopamine": {"target": "D1 Dopamine (Homo sapiens, UniProt P21728)", "assay": "Radioligand binding selectivity, D1 Dopamine", "source_text": "as §1"}, "Adrenergic Beta2": {"target": "Adrenergic Beta2 (Homo sapiens, UniProt P07550)", "sequence (P07550 whole entry)": "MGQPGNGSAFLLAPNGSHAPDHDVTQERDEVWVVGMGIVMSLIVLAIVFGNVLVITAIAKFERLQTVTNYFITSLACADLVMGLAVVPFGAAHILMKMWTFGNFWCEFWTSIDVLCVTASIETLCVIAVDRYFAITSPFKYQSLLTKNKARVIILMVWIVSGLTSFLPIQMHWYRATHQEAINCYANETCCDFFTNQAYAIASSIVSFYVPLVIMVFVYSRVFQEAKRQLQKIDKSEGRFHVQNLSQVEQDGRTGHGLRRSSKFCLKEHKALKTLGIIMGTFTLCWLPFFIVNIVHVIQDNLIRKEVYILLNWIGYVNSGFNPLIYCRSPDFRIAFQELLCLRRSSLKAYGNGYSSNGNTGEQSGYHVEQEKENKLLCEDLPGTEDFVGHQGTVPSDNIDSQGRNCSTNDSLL", "assay": "Radioligand binding selectivity, Adrenergic Beta2", "source_text": "as §1"}, "5-HT1B": {"target": "5-HT1B (Homo sapiens, UniProt P28222)", "sequence (P28222 whole entry, species assumed)": "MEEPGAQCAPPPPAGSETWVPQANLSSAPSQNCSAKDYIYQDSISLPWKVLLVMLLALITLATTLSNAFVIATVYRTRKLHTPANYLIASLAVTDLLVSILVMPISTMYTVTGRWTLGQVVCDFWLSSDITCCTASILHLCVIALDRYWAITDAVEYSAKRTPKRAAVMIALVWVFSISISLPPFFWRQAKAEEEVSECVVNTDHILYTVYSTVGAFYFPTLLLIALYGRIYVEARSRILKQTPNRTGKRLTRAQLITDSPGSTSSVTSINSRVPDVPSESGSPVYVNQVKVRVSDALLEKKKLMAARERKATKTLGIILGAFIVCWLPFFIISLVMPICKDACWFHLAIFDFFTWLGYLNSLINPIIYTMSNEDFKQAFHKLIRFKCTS", "assay": "Radioligand binding selectivity, 5-HT1B", "source_text": "as §1"}, "5-HT1E": {"target": "5-HT1E (Homo sapiens, UniProt P28566)", "assay": "Radioligand binding selectivity, 5-HT1E", "source_text": "as §1"}, "Adrenergic Alpha1": {"target": "Adrenergic Alpha1", "assay": "Radioligand binding selectivity, Adrenergic Alpha1", "source_text": "as §1"}, "5-HT5": {"target": "5-HT5 (Homo sapiens, UniProt P47898)", "sequence (P47898 whole entry)": "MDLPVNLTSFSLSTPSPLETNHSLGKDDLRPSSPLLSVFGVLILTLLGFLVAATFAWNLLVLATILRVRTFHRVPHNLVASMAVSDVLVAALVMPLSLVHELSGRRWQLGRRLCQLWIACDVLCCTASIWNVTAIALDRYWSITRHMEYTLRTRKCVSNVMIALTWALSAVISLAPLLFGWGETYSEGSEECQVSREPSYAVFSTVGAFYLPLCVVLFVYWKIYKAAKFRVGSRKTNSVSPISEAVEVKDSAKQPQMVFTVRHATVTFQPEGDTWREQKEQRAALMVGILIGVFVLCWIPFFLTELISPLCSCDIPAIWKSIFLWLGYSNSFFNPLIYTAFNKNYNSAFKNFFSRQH", "assay": "Radioligand binding selectivity, 5-HT5", "source_text": "as §1"}, "Muscarinic M2": {"target": "Muscarinic M2 (Homo sapiens, UniProt P08172)", "assay": "Radioligand binding selectivity, Muscarinic M2", "source_text": "as §1"}, "Muscarinic M3": {"target": "Muscarinic M3 (Homo sapiens, UniProt P20309)", "sequence (P20309 whole entry)": "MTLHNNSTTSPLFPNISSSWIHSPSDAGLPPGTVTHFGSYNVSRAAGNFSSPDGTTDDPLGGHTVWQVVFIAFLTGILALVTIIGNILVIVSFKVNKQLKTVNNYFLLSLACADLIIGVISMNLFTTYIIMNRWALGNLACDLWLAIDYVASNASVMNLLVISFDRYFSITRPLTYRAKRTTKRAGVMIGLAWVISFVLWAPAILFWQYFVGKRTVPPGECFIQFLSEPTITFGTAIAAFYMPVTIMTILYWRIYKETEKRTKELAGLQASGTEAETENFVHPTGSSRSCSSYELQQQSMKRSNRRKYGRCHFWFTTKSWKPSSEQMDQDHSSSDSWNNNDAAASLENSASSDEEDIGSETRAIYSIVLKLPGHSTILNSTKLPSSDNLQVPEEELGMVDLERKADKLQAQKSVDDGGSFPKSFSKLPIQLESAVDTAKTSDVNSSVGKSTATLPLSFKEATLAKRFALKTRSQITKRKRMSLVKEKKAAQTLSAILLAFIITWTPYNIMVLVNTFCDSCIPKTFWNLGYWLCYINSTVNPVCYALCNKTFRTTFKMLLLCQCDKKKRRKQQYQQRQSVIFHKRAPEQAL", "assay": "Radioligand binding selectivity, Muscarinic M3", "source_text": "as §1"}, "Adrenergic Beta1": {"target": "Adrenergic Beta1 (Homo sapiens, UniProt P08588)", "sequence (P08588 whole entry)": "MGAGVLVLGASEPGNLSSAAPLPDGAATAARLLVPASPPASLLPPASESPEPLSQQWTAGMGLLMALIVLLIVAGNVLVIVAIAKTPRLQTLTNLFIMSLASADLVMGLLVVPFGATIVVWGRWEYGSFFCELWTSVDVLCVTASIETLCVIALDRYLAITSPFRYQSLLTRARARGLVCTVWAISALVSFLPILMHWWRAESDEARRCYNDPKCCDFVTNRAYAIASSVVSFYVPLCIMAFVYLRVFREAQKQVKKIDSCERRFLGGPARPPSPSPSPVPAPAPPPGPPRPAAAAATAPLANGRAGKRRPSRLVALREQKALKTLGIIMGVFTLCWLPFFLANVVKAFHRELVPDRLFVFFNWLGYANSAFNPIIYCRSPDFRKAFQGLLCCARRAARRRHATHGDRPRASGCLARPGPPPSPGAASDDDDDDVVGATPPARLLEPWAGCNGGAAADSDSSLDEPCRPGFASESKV", "assay": "Radioligand binding selectivity, Adrenergic Beta1", "source_text": "as §1"}, "[3]": {"target": "T1, cloned human ORL1/nociceptin receptors (Homo sapiens, UniProt P41146)", "T1 construct": "expressed in transfected cells", "assay": "Functional blockade of agonist-mediated G-protein activation, GTP-γ-[35S] binding", "assay_type": "biochemical", "source_text": "Agonist-mediated stimulation of G-protein coupled receptors results in the activation of membrane associated Gαβγ-protein heterotrimer complexes, and represents the first step in the transduction of extracellular signals to modification of intracellular pathways. The first step in activation of receptor-mediated activation of Gαβγ-proteins heterotrimer is the exchange of Gα subunit bound guanosine diphoshpate (GDP) for guanosine triphosphate (GTP). The binding of GTP to the Gα subunit causes dissociation of the heterotrimer subunits, Gβ and Gγ, resulting in the modulation of several intracellular signaling cascades. Measurement of receptor-mediated G-protein activation can be measured using the non-hydrolyzable radiolabeled analog of GTP, GTP-γ-[35S]. Utilizing this methodology, antagonist affinity (Kb) is measured in membranes expressing cloned human ORL1/nociceptin receptors using a GTP-γ-[35S] binding assay according to previously described protocols with minor modifications (DeLapp et al., J Pharmacol Exp Ther. 1999 May; 289(2):946-55; Ozaki et al., Eur J Pharmacol. 2000 Aug. 18; 402(1-2):45-53). Assays are conducted in a 200-μl volume with the following buffer composition: 100 mM NaCl, 20 mM HEPES, 5 mM MgCl2, 1 mM EDTA, 0.1% BSA, 3 μM GDP, 0.5 nM [^35S]GTPγS. ORL1 receptor membrane suspension is added at a concentration of 20 μg protein per well and receptor stimulation is achieved using 300 nM nociceptin/OFQ. Wheat germ agglutinin coated SPA beads (Amersham, Arlington Hts., IL) are added at 1 mg per well to detect membrane-bound [^35S]GTPγS. Plates are sealed and incubated for 2 hr. at room temperature. Plates are then placed at 4° C. overnight to allow the SPA beads to settle and then counted in a Wallac Microbeta. Specific [^35S]GTPγS binding is determined as the difference in CPM observed in the absence and presence of 10 μM unlabeled GTPγS. Data are plotted as the percent of specific [^35S]GTPγS bound. Curves are plotted as the percent of specific binding and IC50 values are determined using a sigmoidal dose response curve with variable slope. […]"}, "[4]": {"target": "Ca+2 channel (diltiazem site)", "assay": "Radioligand binding selectivity, Ca+2 channel (diltiazem site)", "source_text": "as §1"}, "5-HT1D": {"target": "5-HT1D (Homo sapiens, UniProt P28221)", "assay": "Radioligand binding selectivity, 5-HT1D", "source_text": "as §1"}, "D2 Dopamine": {"target": "D2 Dopamine (Homo sapiens, UniProt P14416)", "sequence (P14416 whole entry)": "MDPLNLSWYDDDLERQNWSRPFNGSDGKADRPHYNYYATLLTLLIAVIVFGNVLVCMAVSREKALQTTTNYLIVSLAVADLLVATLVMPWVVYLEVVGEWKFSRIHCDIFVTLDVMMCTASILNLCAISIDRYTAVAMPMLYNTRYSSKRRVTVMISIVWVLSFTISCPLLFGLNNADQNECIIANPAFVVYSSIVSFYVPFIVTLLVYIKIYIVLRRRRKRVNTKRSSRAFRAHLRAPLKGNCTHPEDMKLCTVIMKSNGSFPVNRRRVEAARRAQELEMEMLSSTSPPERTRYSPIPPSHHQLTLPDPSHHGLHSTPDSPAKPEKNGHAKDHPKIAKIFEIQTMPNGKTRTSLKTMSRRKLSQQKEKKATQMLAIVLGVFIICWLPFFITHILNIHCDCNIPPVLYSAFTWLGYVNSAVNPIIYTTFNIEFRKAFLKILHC", "assay": "Radioligand binding selectivity, D2 Dopamine", "source_text": "as §1"}, "5-HT2C": {"target": "5-HT2C (Homo sapiens, UniProt P28335)", "assay": "Radioligand binding selectivity, 5-HT2C", "source_text": "as §1"}, "Na+ channel": {"target": "Na+ channel", "assay": "Radioligand binding selectivity, Na+ channel", "source_text": "as §1"}}, "note": "Like-named read-outs stand apart in the source and are kept apart here."}
{"molecule": "O=C(O)C(O)C(O)C(=O)O.OCc1nn(-c2ncccc2F)cc1CN1CCC2(CC1)OCC(F)(F)c1cc(Cl)sc12", "note": "[Example 53, [4-[(2-Chloro-4,4-difluoro-spiro[5H-thieno[2,3-c]pyran-7,4′-piperidine]-1′-yl)methyl]-1-(3-fluoro-2-pyridyl)pyrazol-3-yl]methanol (L)-Tartrate]", "values": [{"measurement": "Ki", "setting": "Adrenergic Alpha2", "result": "> 5", "unit": "µM"}, {"measurement": "Ki", "setting": "[1]", "result": "> 0.5", "unit": "µM"}, {"measurement": "Ki", "setting": "5-HT1F", "result": "> 8.52", "unit": "µM"}, {"measurement": "Ki", "setting": "5-HT2A", "result": "> 5", "unit": "µM"}, {"measurement": "Ki", "setting": "5-HT2B", "result": 0.22, "unit": "µM"}, {"measurement": "Ki", "setting": "5-HT7", "result": "> 3.98", "unit": "µM"}, {"measurement": "Ki", "setting": "5-HT4", "result": "> 4.12", "unit": "µM"}, {"measurement": "Ki", "setting": "Ca+2 channel (DHP site)", "result": "> 5", "unit": "µM"}, {"measurement": "Ki", "setting": "5-HT1A", "result": "> 3.18", "unit": "µM"}, {"measurement": "Ki", "setting": "[2]", "result": "> 5", "unit": "µM"}, {"measurement": "Ki", "setting": "D1 Dopamine", "result": "> 5", "unit": "µM"}, {"measurement": "Ki", "setting": "Adrenergic Beta2", "result": "> 5", "unit": "µM"}, {"measurement": "Ki", "setting": "5-HT1B", "result": "> 3.58", "unit": "µM"}, {"measurement": "Ki", "setting": "5-HT1E", "result": "> 5.37", "unit": "µM"}, {"measurement": "Ki", "setting": "Adrenergic Alpha1", "result": "> 5", "unit": "µM"}, {"measurement": "Ki", "setting": "5-HT5", "result": "> 9.09", "unit": "µM"}, {"measurement": "Ki", "setting": "Muscarinic M2", "result": "> 5", "unit": "µM"}, {"measurement": "Ki", "setting": "Muscarinic M3", "result": "> 5", "unit": "µM"}, {"measurement": "Ki", "setting": "Adrenergic Beta1", "result": "> 5", "unit": "µM"}, {"measurement": "Kb", "setting": "[3]", "result": 0.00062, "unit": "µM"}, {"measurement": "Ki", "setting": "[4]", "result": "> 0.5", "unit": "µM"}, {"measurement": "Ki", "setting": "5-HT1D", "result": "> 8.55", "unit": "µM"}, {"measurement": "Ki", "setting": "D2 Dopamine", "result": "> 5", "unit": "µM"}, {"measurement": "Ki", "setting": "5-HT2C", "result": "> 5.65", "unit": "µM"}, {"measurement": "Ki", "setting": "Na+ channel", "result": "> 0.5", "unit": "µM"}]}
{"molecule": "Cc1nn(-c2ncccc2Cn2cccn2)cc1CN1CCC2(CC1)OCC(F)(F)c1cc(Cl)sc12.O=C(O)C(O)C(O)C(=O)O", "note": "[Example 23, 2-Chloro-4,4-difluoro-1′-[[3-methyl-1-[3-(pyrazol-1-ylmethyl)-2-pyridyl]pyrazol-4-yl]methyl]spiro[5H-thieno[2,3-c]pyran-7,4′-piperidine] (L)-Tartrate]", "values": [{"measurement": "Kb", "setting": "[3]", "result": 0.00152, "unit": "µM"}]}
{"molecule": "Cc1nn(-c2ncccc2CO)cc1CN1CCC2(CC1)OCC(F)(F)c1cc(Cl)sc12", "note": "[Example 62, [2-[4-[(2-Chloro-4,4-difluoro-spiro[5H-thieno[2,3-c]pyran-7,4′-piperidine]-1′-yl)methyl]-3-methyl-pyrazol-1-yl]-3-pyridyl]methanol]", "values": [{"measurement": "Ki", "setting": "Adrenergic Alpha2", "result": "> 5", "unit": "µM"}, {"measurement": "Ki", "setting": "[1]; read-out: Ki Norepinephrine transporter", "result": "> 0.5", "unit": "µM"}, {"measurement": "Ki", "setting": "5-HT1F; read-out: Ki 5-HT1F", "result": "> 8.52", "unit": "µM"}, {"measurement": "Ki", "setting": "5-HT2A; read-out: Ki 5-HT2A", "result": "> 5", "unit": "µM"}, {"measurement": "Ki", "setting": "5-HT2B; read-out: Ki 5-HT2B", "result": 0.693, "unit": "µM"}, {"measurement": "Ki", "setting": "5-HT7; read-out: Ki 5-HT7", "result": "> 3.98", "unit": "µM"}, {"measurement": "Ki", "setting": "5-HT4; read-out: Ki 5-HT4", "result": "> 4.12", "unit": "µM"}, {"measurement": "Ki", "setting": "Ca+2 channel (DHP site)", "result": "> 5", "unit": "µM"}, {"measurement": "Ki", "setting": "5-HT1A; read-out: Ki 5-HT1A", "result": "> 3.18", "unit": "µM"}, {"measurement": "Ki", "setting": "[2]", "result": "> 0.5", "unit": "µM"}, {"measurement": "Ki", "setting": "D1 Dopamine; read-out: Ki D1 Dopamine", "result": "> 5", "unit": "µM"}, {"measurement": "Ki", "setting": "Adrenergic Beta2", "result": "> 5", "unit": "µM"}, {"measurement": "Ki", "setting": "5-HT1B; read-out: Ki 5-HT1B", "result": "> 3.58", "unit": "µM"}, {"measurement": "Ki", "setting": "5-HT1E; read-out: Ki 5-HT1E", "result": "> 5.37", "unit": "µM"}, {"measurement": "Ki", "setting": "Adrenergic Alpha1", "result": "> 5", "unit": "µM"}, {"measurement": "Ki", "setting": "5-HT5; read-out: Ki 5-HT5", "result": "> 9.09", "unit": "µM"}, {"measurement": "Ki", "setting": "Muscarinic M2; read-out: Ki Muscarinic M2", "result": "> 0.5", "unit": "µM"}, {"measurement": "Ki", "setting": "Muscarinic M3; read-out: Ki Muscarinic M3", "result": "> 5", "unit": "µM"}, {"measurement": "Ki", "setting": "Adrenergic Beta1", "result": "> 5", "unit": "µM"}, {"measurement": "Ki", "setting": "[4]", "result": "> 0.5", "unit": "µM"}, {"measurement": "Ki", "setting": "5-HT1D; read-out: Ki 5-HT1D", "result": "> 8.55", "unit": "µM"}, {"measurement": "Ki", "setting": "D2 Dopamine; read-out: Ki D2 Dopamine", "result": "> 5", "unit": "µM"}, {"measurement": "Ki", "setting": "5-HT2C; read-out: Ki 5-HT2C", "result": "> 5.65", "unit": "µM"}, {"measurement": "Ki", "setting": "Na+ channel", "result": 0.235, "unit": "µM"}]}
